Counter-ions that a name gives are not always drawn. Like-named read-outs stand apart in the source and are kept apart here.
Key:
[1] = system: Female mice; test: In vivo hot plate method analgesia test; details: intraperitoneal; for % MPE @ 10 mg/kg: Table 3-2, hot plate 55° C.; for ED50: Mus musculus, ip; for % MPE (5 mg/kg): Table 2-2, hot plate 55° C.
How it was run: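 Female mice (~20 g) on a 55° C hot plate, hindpaw response latency as pain threshold (pre-screen 5–30 s, 60 s cut-off). Latencies at 15, 30, 60 and 120 min after intraperitoneal dosing. %MPE = (post−pre latency)/(60−pre)×100, ED50 derived from %MPE.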

[2] = biological target: T1, δ opioid receptor (Homo sapiens, UniProt P41143); test: Competition binding assay on membranes of CHO cells expressing δ opioid receptor, [3H]-labeled ligand; details: for inhibition at 1 µM: 0.5 h, read-out: δOR Binding rate (%)
T1 construct: expressed in transfected cells; host or cells: CHO cells (membranes)
How it was run: (§1)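 CHO membranes (20–30 μg protein) incubated with [3H]-labeled ligand at 1–2 nM and test compounds, 30 min at 30° C; nonspecific binding with 1 μM corresponding ligand. Filtered on GF/C, washed with 50 mM Tris-HCl pH 7.4, scintillation-counted. IC50 converted to Ki by Ki=IC50/(1+[L]/Kd).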

[3] = biological target: T2, μ opioid receptor (Homo sapiens, UniProt P35372); test: Competition binding assay on membranes of CHO cells expressing μ opioid receptor, [3H]-labeled ligand; details: for inhibition at 1 µM: read-out: μOR Binding rate (%); for Ki: read-out: μOR Ki
T2 construct: expressed in transfected cells; host or cells: CHO cells (membranes)
How it was run: as §1

[4] = biological target: T3, κ opioid receptor (Homo sapiens, UniProt P41145); test: Competition binding assay on membranes of CHO cells expressing κ opioid receptor, [3H]-labeled ligand; details: for inhibition at 1 µM: 0.5 h, read-out: κOR Binding rate (%)
T3 construct: expressed in transfected cells; host or cells: CHO cells (membranes)
How it was run: as §1

[5] = Table 3-1, 1 μM concentration of compounds
[6] = Table 2-1, 1 μM concentration of compound

Row | SMILES | % MPE @ 10 mg/kg [1] [%] | inhibition at 1 µM [2, 5] [%] | inhibition at 1 µM [3, 5] [%] | inhibition at 1 µM [4, 5] [%] | also measured
1 | COc1cccc(C2(O)CCN(C(=O)N(C)c3cccc(Cl)c3)CC2CN(C)C)c1.Cl (stereo not shown) [FWBF3, N-(3-Chlorophenyl)-3-((dimethylamino)methyl)-4-hydroxy-4-(3-methoxyphenyl)-N-methylpiperidine-1-carboxamide hydrochloride] | 3.36 | 0 | 8.7 ± 3.7 | 14 ± 9.7 | 
2 | COc1cccc(C2(O)CCN(C(=O)Nc3ccc(Cl)cc3)CC2CN(C)C)c1.Cl (stereo not shown) [FWBF4, N-(4-Chlorophenyl)-3-((dimethylamino)methyl)-4-hydroxy-4-(3-methoxyphenyl)piperidine-1-carboxamide hydrochloride] | 68.95 | 0 | 48.8 ± 3.9 | 22.1 ± 10.7 | 
3 | COc1cccc(C2(O)CCN(C(=O)Nc3ccc(Cl)c(Cl)c3)CC2CN(C)C)c1.Cl (stereo not shown) [FWBF5, N-(3,4-dichlorophenyl)-3-((dimethylamino)methyl)-4-hydroxy-4-(3-methoxyphenyl)piperidine-1-carboxamide hydrochloride] | 25.42 | 0 | 46 ± 5.4 | 18.2 ± 1.9 | 
4 | COc1cccc(C2(O)CCN(C(=O)Nc3cc(Cl)c(Cl)c(Cl)c3)CC2CN(C)C)c1 (stereo not shown) [FWBF6, 3-((Dimethylamino)methyl)-4-hydroxy-4-(3-methoxyphenyl)-N-(3,4,5-trichlorophenyl) piperidine-1-carboxamide hydrochloride] | 4.54 | 0 | 13.2 ± 8 | 0 | 
5 | COc1cccc(C2(O)CCN(C(=O)Nc3cccc(F)c3)CC2CN(C)C)c1 (stereo not shown) [FWBF7, 3-((Dimethylamino)methyl)-N-(3-fluorophenyl)-4-hydroxy-4-(3-methoxyphenyl)piperidine-1-carboxamide hydrochloride] |  | 9.2 ± 7.8 | 36.7 ± 7.4 | 0 | ED50 ([1]; Table 3-2, hot plate): 4.12 mg/kg
6 | COc1cccc(C2(O)CCN(C(=O)Nc3ccc(F)c(F)c3)CC2CN(C)C)c1.Cl (stereo not shown) [FWBF8, N-(3,4-difluorophenyl)-3-((dimethylamino)methyl)-4-hydroxy-4-(3-methoxyphenyl)piperidine-1-carboxamide hydrochloride] | 21.76 | 16.4 ± 10.6 | 13.6 ± 13.1 | 0 | 
7 | COc1cccc(C2(O)CCN(C(=O)Nc3ccc(F)c(Cl)c3)CC2CN(C)C)c1 (stereo not shown) [FWBF9, N-(3-chloro-4-fluorophenyl)-3-((dimethylamino)methyl)-4-hydroxy-4-(3-methoxyphenyl) piperidine-1-carboxamide hydrochloride] | 18.15 | 21.6 ± 13.4 | 25 ± 13.3 | 7.1 ± 5 | 
8 | COc1cccc(C2(O)CCN(C(=O)Nc3cc(C(F)(F)F)cc(C(F)(F)F)c3)CC2CN(C)C)c1.Cl (stereo not shown) [FWBF10, N-(3,5-Bis(trifluoromethyl)phenyl)-3-((dimethylamino)methyl)-4-hydroxy-4-(3-methoxyphenyl) piperidine-1-carboxamide hydrochloride] | 7.74 | 0.9 | 0 | 8.6 ± 4.8 | 
9 | COc1cccc(C2(O)CCN(C(=O)Nc3ccc4ccccc4c3)CC2CN(C)C)c1 (stereo not shown) [FWBF11, 3-((Dimethylamino)methyl)-4-hydroxy-4-(3-methoxyphenyl)-N-(naphthalen-2-yl)piperidine-1-carboxamide hydrochloride] | 4.41 | 0 | 0.5 | 3.9 | 
10 | COc1cccc(C2(O)CCN(C(=O)NCc3ccccc3)CC2CN(C)C)c1 (stereo not shown) [FWBF12, N-Benzyl-3-((dimethylamino)methyl)-4-hydroxy-4-(3-methoxyphenyl)piperidine-1-carboxamide hydrochloride] | 15.07 | 2.6 ± 2.9 | 35.1 ± 4.4 | 5.1 ± 4 | 
11 | COc1cccc(C2(O)CCN(C(=O)N[C@@H](C)c3ccccc3)CC2CN(C)C)c1 (stereo partly drawn) [FWBF13, 3-((Dimethylamino)methyl)-4-hydroxy-4-(3-methoxyphenyl)-N-((S)-1-phenylethyl)piperidine-1-carboxamide hydrochloride] | 5.77 | 0 | 20.5 ± 5.5 | 4.1 ± 6.7 | 
12 | COc1cccc(C2(O)CCN(C(=O)NC34CC5CC(CC(C5)C3)C4)CC2CN(C)C)c1 [FWBF14, N-((3S,5S,7S)-adamantan-1-yl)-3-((dimethylamino)methyl)-4-hydroxy-4-(3-methoxyphenyl) piperidine-1-carboxamide hydrochloride] | 24.15 | 0 | 13.5 ± 4.8 | 17.9 ± 4.8 | 
13 | COc1cccc(C2(O)CCN(C(=O)NC(C)C34CC5CC(CC(C5)C3)C4)CC2CN(C)C)c1.Cl [FWBF15, N-(1-((3R,5R,7R)-adamantan-1-yl)ethyl)-3-((dimethylamino)methyl)-4-hydroxy-4-(3-methoxyphenyl)piperidine-1-carboxamide hydrochloride] | 22.07 | 0 | 32.8 ± 5.5 | 10.4 ± 10.2 | 
14 | COc1cccc(C2(O)CCN(C(=O)NC34CC5CC(CC(O)(C5)C3)C4)CC2CN(C)C)c1.Cl [FWBF16, 3-((dimethylamino)methyl)-4-hydroxy-N-((1R,3S,5R,7S)-3-hydroxyadamantan-1-yl)-4-(3-methoxyphenyl)piperidine-1-carboxamide hydrochloride] | 16.07 | 1.9 | 0 | 0 | 
15 | COC(=O)c1sccc1NC(=O)N1CCC(O)(c2cccc(OC)c2)C(CN(C)C)C1 (stereo not shown) [FWBF17, Methyl 3-(3-((dimethylamino)methyl)-4-hydroxy-4-(3-methoxyphenyl)piperidine-1-carboxamide) thiophene-2-carboxylate hydrochloride] | 19.34 | 0 | 10.2 ± 9 | 0 | 
16 | COC(=O)c1ccsc1NC(=O)N1CCC(O)(c2cccc(OC)c2)C(CN(C)C)C1 (stereo not shown) [FWBF18, Methyl 2-(3-((dimethylamino)methyl)-4-hydroxy-4-(3-methoxyphenyl)piperidine-1-carboxamide) thiophene-3-carboxylate hydrochloride] | 22.76 | 16 ± 12.4 | 2.3 | 9.2 ± 3.1 | 
17 | COc1cccc(C2(O)CCN(C(=O)Nc3cccs3)CC2CN(C)C)c1 (stereo not shown) [FWBF19, 3-((Dimethylamino)methyl)-4-hydroxy-4-(3-methoxyphenyl)-N-(thiophen-2-yl)piperidine-1-carboxamide hydrochloride] | 20.07 | 38.2 ± 9.4 | 0 | 27.5 ± 6.4 | 
18 | COc1cccc(C2(O)CCN(S(=O)(=O)Cc3ccccc3)CC2CN(C)C)c1.Cl (stereo not shown) [FWBH6, 1-(Benzylsulfonyl)-3-((dimethylamino)methyl)-4-(3-methoxyphenyl)piperidin-4-ol hydrochloride] |  |  |  |  | ED50 ([1]; Table 2-2, hot plate): 1.1 mg/kg; Ki [2]: > 10 µM; inhibition at 1 µM [3, 6]: 0%; Ki [4]: > 10 µM
19 | COc1cccc(C2(O)CCN(S(=O)(=O)Cc3cccc(Cl)c3)CC2CN(C)C)c1.Cl (stereo not shown) [FWBH7, 1-((3-Chlorobenzyl)sulfonyl)-3-((dimethylamino)methyl)-4-(3-methoxyphenyl)piperidin-4-ol hydrochloride] |  |  |  |  | ED50 ([1]; Table 2-2, hot plate): 1.58 mg/kg; inhibition at 1 µM [2, 6]: 28.8 ± 0.04%; inhibition at 1 µM [3, 6]: 21.9 ± 2.4%; inhibition at 1 µM [4, 6]: 0%
20 | COc1cccc(C2(O)CCN(S(=O)(=O)Cc3ccc(C)cc3)CC2CN(C)C)c1.Cl (stereo not shown) [FWBH8, 3-((Dimethylamino)methyl)-4-(3-methoxyphenyl)-1-((4-methylbenzyl)sulfonyl)piperidin-4-ol hydrochloride] |  |  |  |  | % MPE (5 mg/kg) [1]: 17.36%; inhibition at 1 µM [2, 6]: 11.9 ± 1.31%; Ki ([3]; Table 2-1): 0.247 ± 0.0494 µM; inhibition at 1 µM [4, 6]: 29 ± 0.32%
21 | COc1cccc(C2(O)CCN(S(=O)(=O)CCc3ccccc3)CC2CN(C)C)c1.Cl (stereo not shown) [FWBH9, 3-((Dimethylamino)methyl)-4-(3-methoxyphenyl)-1-(phenethylsulfonyl)piperidin-4-ol hydrochloride] |  |  |  |  | % MPE (5 mg/kg) [1]: 100%; inhibition at 1 µM [2, 6]: 0%; Ki ([3]; Table 2-1): 0.00179 ± 0.002 µM; inhibition at 1 µM [4, 6]: 8.41 ± 1.66%
22 | COc1cccc(C2(O)CCN(S(=O)(=O)Cc3cccc(C(F)(F)F)c3)CC2CN(C)C)c1.Cl (stereo not shown) [FWBH10, 3-((Dimethylamino)methyl)-4-(3-methoxyphenyl)-1-((3-(trifluoromethyl)benzyl)sulfonyl) piperidin-4-ol hydrochloride] |  |  |  |  | % MPE (5 mg/kg) [1]: 72.41%; Ki ([2]; Table 2-1, read-out: δOR Ki): 3.65 ± 1.25 µM; Ki ([3]; Table 2-1): 0.00468 ± 0.00012 µM; inhibition at 1 µM [4, 6]: 30.1 ± 0.7%
